{"source": "patent EP0346791B1", "about": "“1,2-diarylethylamines for treatment of neurotoxic injury” (priority 1988, dated 1989)", "key": {"PCP receptors": {"molecular_target": "PCP receptors", "format": "binding", "settings": "1 nM 3H-TCP, whole rat brain membranes, 1 hour incubation; value ± SEM; read-out: Ki apparent"}, "Male Sprague-Dawley rats": {"test_system": "Male Sprague-Dawley rats", "test": "Behavioral assay (stereotyped behavior, PCP rating scale)", "format": "in vivo", "settings": "95% confidence intervals in parenthesis; for ED50: Rattus norvegicus", "procedure": "Nine compounds were tested in comparison with PCP and TCP by an in vivo assay which determined stereotypic behavior in rats treated with the compounds. Male Sprague-Dawley rats weighing 200 to 250 g were used in the behavioral experiments. Each rat was used only once. Rats were anesthetized lightly with ether before a 20-gauge needle was used to make a hole in the rat's skull for i.c.v. injection of drugs at a later date. These rats were allowed to recover for at least 1 day before being used in the behavioral assays. On the day of the experiment, rats were placed individually into plastic rat cages and allowed at least 1 hr to acclimate before testing. Drugs were administered to rats in a random, single-blind fashion.\nDose-response curves for each treatment were determined at the time of maximal behavioral effect. Peak effects were found 5 min after i.c.v. administration of PCP (25-20000 nmol/rat). […] A rating of 5 in the PCP-rating scale was considered as complete stereotyped behavior, that is, a 100% response. At least 21 rats (at least seven rats/dose) were used to determine each dose-response curve and ED₅₀ values. ED₅₀ values and dose-response curves were evaluated using a computerized Finney assay [Statistical Methods In Biological Assays, 2nd Edn., Hatner Pub. Co., New York (1964)].\nThe ability of the tested compounds to induce stereotyped behavior was assessed at 2.5, 5 and 10 minutes and thereafter every 5 min up to 1 hr after i.c.v., i.p., or s.c. administration."}, "hippocampal neurons [1]": {"test_system": "hippocampal neurons", "test": "Chronic hypoxic insult assay (MTT neuronal survival)", "format": "cell-based, Sprague-Dawley rats", "settings": "for Optical Density: 6 hours anaerobic chamber, then 2 hours normal O2, MTT 570 nm, ± SEM, untreated control 0.058, hypoxia alone 0.020; for Maximum protection of neurons from hypoxic insult was obtained with: concentration giving maximum protection", "procedure": "Compound Nos. 4 and 5 were tested for their ability to protect hippocampal neurons from hypoxia-induced cell death. Cultures of hippocampal neurons were prepared from embryonic day 17 Sprague-Dawley rats. The hippocampi were dissociated into a single cell suspension by incubation with 0.25% trypsin, […] DNase followed by gentle trituration through a Pasteur pipet. The cells were plated in a polylysine-coated 96-well plate and maintained in a chemically defined medium until use. The cells were grown for 2 to 3 weeks in 5% CO₂-in-air humidified environment at 36°C to establish a thick network of neuronal processes with numerous spontaneously active synapses. Exposure to hypoxic/anoxic environment was accomplished by placing the cultures in an anaerobic chamber, and flushing it with a mixture of 95% N₂+ 5% CO₂ gas to rapidly drop the O₂ tension to near zero. The O₂ tension was maintained at near zero using a disposable H₂ + CO₂ generator envelope with palladium catalyst. Compound No. 4 and Compound No. 5 were added to the culture medium prior to incubation in the anaerobic chamber and maintained there for 6 hours. Following 2 hours of exposure to normal O₂ tension, the cultures were processed for morphological and quantitive biochemical neuronal cell viability assays.\nThe neuronal survival assay utilized the compound MTT [(3-(4,5-dimethylthiazol-2-yl)-2,5-diphenyl tetrazolium bromide)], a pale yellow substrate that is cleaved by the mitochondrial enzyme succinate-dehydrogenase to yield a dark blue formazan product. This process requires active mitochondria, present only in live cells. Cultures of hippocampal neurons grown in 96-well plates were incubated with 1 mg/ml MTT at 36°C in a 10% CO₂-in-air incubator for 30-60 min. At the end of the incubation, a dark blue precipitate outlined only viable cells. The precipitate was then solubilized using 0.08 N HCl/isopropanol mixture and the absorbance measured with an ELISA plate reader (Dynatech MR600) using a test wavelength of 570 nm and a reference wavelength of 630 nm. The resulting optical density is directly proportional to the number of viable cells."}, "hippocampal neurons [2]": {"test_system": "hippocampal neurons", "test": "Acute azide toxicity assay (MTT neuronal survival)", "format": "cell-based, Sprague-Dawley rats", "settings": "10 µM sodium azide for 1 hour"}, "Male Mongolian gerbils": {"test_system": "Male Mongolian gerbils", "test": "Forebrain ischemia assay (carotid occlusion, CA1 cell loss)", "format": "in vivo", "settings": "30 mg/kg i.p. 30 minutes prior to carotid occlusion; 7 days; vs saline injected gerbils; Mann-Whitney U test p<0.01", "procedure": "Male Mongolian gerbils, 50-70 gm, were used as subjects. Compound No. 1 (30 mg/kg) was injected i.p. 30 minutes prior to carotid occlusion into 6 gerbils. In preparation for surgical procedures, the animals were lightly anesthetized with methoxyflurane and placed upside down on a heated pad with their snout within a nosecone. Nitrous oxide (70%): oxygen (30%) plus 0.5% halothane was circulated through the nosecone to provide continuous anesthesia throughout the surgical procedure. A midline incision was made in the neck and the carotid arteries were exposed. A length of suture thread was placed under each carotid. The thread was then tightened around each carotid and pressure applied to the thread to insure flow was occluded. Flow was occluded for 4-5 minutes and then the thread was removed. The carotids were visually inspected to confirm that reflow had occurred. The wound was then closed with autoclips and the gerbils allowed to recover. Following surgery, the gerbils were kept alive for 7 days. They were anesthetized with 100 mg/kg sodium pentobarbital and perfused transcardially with saline (with heparin) followed by buffered formalin. The brain was removed, trimmed and prepared for histological processing. Sections (10 microns) were stained with thionin. […]"}, "[3]": {"settings": "sc, read-out: Stereotyped Behavior ED₅₀ s.c."}, "[4]": {"settings": "ip, read-out: Stereotyped Behavior ED₅₀ i.p."}}, "note": "Read-outs that look alike come from different tables or passages of the source.", "data": [{"molecule": "c1ccc(CC(c2cccc3ccccc23)N2CCCCC2)cc1", "note": "(racemic) [Compound No. 33]", "values": [{"measurement": "Ki", "setting": "PCP receptors", "value": "6000 ± 1700", "unit": "nM"}]}, {"molecule": "COc1cccc(C(Cc2ccccc2)N2CCCCC2)c1", "note": "(racemic) [Compound No. 26]", "values": [{"measurement": "Ki", "setting": "PCP receptors", "value": "100 ± 20", "unit": "nM"}]}, {"molecule": "Cc1ccc(C(Cc2ccccc2)N2CCCCC2)cc1", "note": "(racemic) [Compound No. 21]", "values": [{"measurement": "Ki", "setting": "PCP receptors", "value": "1800 ± 300", "unit": "nM"}]}, {"molecule": "Fc1ccc(C(Cc2ccccc2)N2CCCCC2)cc1", "note": "(racemic) [Compound No. 27]", "values": [{"measurement": "Ki", "setting": "PCP receptors", "value": "220 ± 10", "unit": "nM"}]}, {"molecule": "c1ccc(CC(c2ccco2)N2CCCCC2)cc1", "note": "(racemic) [Compound No. 30]", "values": [{"measurement": "Ki", "setting": "PCP receptors", "value": "400 ± 10", "unit": "nM"}]}, {"molecule": "CC(C)(c1ccccc1)C(c1cccs1)N1CCCCC1", "note": "(racemic) [Compound No. 25]", "values": [{"measurement": "Ki", "setting": "PCP receptors", "value": "> 30000", "unit": "nM"}]}, {"molecule": "C1=CCN(C(Cc2ccccc2)c2cccs2)CC1", "note": "(racemic) [Compound No. 15]", "values": [{"measurement": "ED50", "setting": "Male Sprague-Dawley rats; [3]", "value": 1.7, "unit": "mg/kg"}]}, {"molecule": "CC(C)C(c1ccccc1)C(c1ccccc1)N1CCCCC1", "note": "(racemic) [Compound No. 12]", "values": [{"measurement": "ED50", "setting": "Male Sprague-Dawley rats; [3]", "value": "> 50", "unit": "mg/kg"}]}, {"molecule": "COc1ccc(C(Cc2ccccc2)N2CCCCC2)cc1", "note": "(racemic) [Compound No. 22]", "values": [{"measurement": "Ki", "setting": "PCP receptors", "value": "8100 ± 500", "unit": "nM"}]}, {"molecule": "c1ccc(CC(c2ccccc2)N2CCCC2)cc1", "note": "(racemic) [Compound No. 20]", "values": [{"measurement": "Ki", "setting": "PCP receptors", "value": "16000 ± 2600", "unit": "nM"}, {"measurement": "ED50", "setting": "Male Sprague-Dawley rats; [3]", "value": 7.8, "unit": "mg/kg"}]}, {"molecule": "OC(c1ccccc1)C(c1ccccc1)N1CCCCC1", "note": "(racemic) [Compound No. 13]", "values": [{"measurement": "ED50", "setting": "Male Sprague-Dawley rats; [3]", "value": 11, "unit": "mg/kg"}]}, {"molecule": "c1ccc(C(N2CCCCC2)C2(c3ccccc3)CC2)cc1", "note": "(racemic) [Compound No. 23]", "values": [{"measurement": "Ki", "setting": "PCP receptors", "value": "> 30000", "unit": "nM"}]}, {"molecule": "c1ccc(CC(c2ccccc2)N2CCCCC2)cc1", "note": "(single isomer, unassigned) [Compound No. 4]", "values": [{"measurement": "Optical Density", "setting": "hippocampal neurons [1]; Hypoxia + 1 µM compound", "value": "0.046 ± 0.01"}, {"measurement": "Maximum protection of neurons from hypoxic insult was obtained with", "setting": "hippocampal neurons [1]", "value": 1, "unit": "µM"}, {"measurement": "protection of neurons from sodium azide toxicity", "setting": "hippocampal neurons [2]; 100 µM compound", "value": "significant protection"}, {"measurement": "Optical Density", "setting": "hippocampal neurons [2]; Sodium azide + 100 µM compound, MTT, ± SEM, control 0.123, sodium azide alone 0.075", "value": "0.133 ± 0.01"}, {"measurement": "ED50", "setting": "Male Sprague-Dawley rats; [4]", "value": 2.1, "unit": "mg/kg"}, {"measurement": "Stereotyped Behavior ED₅₀ i.c.v.", "setting": "Male Sprague-Dawley rats", "value": "120(100-140) nmoles/rat"}, {"measurement": "Stereotyped Behavior ED₅₀ s.c.", "setting": "Male Sprague-Dawley rats", "value": "0.78(0.60-1.0) mg/kg"}]}, {"molecule": "CC(C)(c1ccccc1)C(c1ccccc1)N1CCCCC1", "note": "(racemic) [Compound No. 28]", "values": [{"measurement": "Ki", "setting": "PCP receptors", "value": "12000 ± 1000", "unit": "nM"}]}, {"molecule": "c1ccc(CC(c2cccs2)N2CCCCC2)cc1", "note": "(racemic) [Compound No. 5]", "values": [{"measurement": "Optical Density", "setting": "hippocampal neurons [1]; Hypoxia + 10 µM compound", "value": "0.047 ± 0.01"}, {"measurement": "Maximum protection of neurons from hypoxic insult was obtained with", "setting": "hippocampal neurons [1]", "value": 10, "unit": "µM"}, {"measurement": "ED50", "setting": "Male Sprague-Dawley rats; [3]", "value": 3.5, "unit": "mg/kg"}]}, {"molecule": "c1ccc(C2(N3CCCCC3)CCCCC2)cc1", "note": "[PCP, Phencyclidine, reference compound]", "values": [{"measurement": "Stereotyped Behavior ED₅₀ i.c.v.", "setting": "Male Sprague-Dawley rats", "value": "150(120-170) nmoles/rat"}]}, {"molecule": "CC1CC(C)CN(C(Cc2ccccc2)c2ccccc2)C1", "note": "(racemic) [Compound No. 24]", "values": [{"measurement": "Ki", "setting": "PCP receptors", "value": "850 ± 40", "unit": "nM"}]}, {"molecule": "Clc1ccccc1C(Cc1ccccc1)N1CCCCC1", "note": "(racemic) [Compound No. 31]", "values": [{"measurement": "Ki", "setting": "PCP receptors", "value": "0.19 ± 0.11", "unit": "nM"}]}, {"molecule": "Cc1cccc(C(Cc2ccccc2)N2CCCCC2)c1", "note": "(racemic) [Compound No. 29]", "values": [{"measurement": "Ki", "setting": "PCP receptors", "value": "110 ± 30", "unit": "nM"}]}, {"molecule": "c1ccc(CC(c2ccccc2)N2CCCCC2)cc1", "note": "(racemic) [Compound No. 1]", "values": [{"measurement": "ED50", "setting": "Male Sprague-Dawley rats; [4]", "value": 2, "unit": "mg/kg"}, {"measurement": "ED50", "setting": "Male Sprague-Dawley rats; [3]", "value": 2.9, "unit": "mg/kg"}, {"measurement": "cell loss in CA1", "setting": "Male Mongolian gerbils", "value": "significantly reduced"}]}, {"molecule": "c1ccc(CC(c2ccccc2)N2CCCCC2)cc1", "note": "(single isomer, unassigned) [Compound No. 3]", "values": [{"measurement": "Stereotyped Behavior ED₅₀ s.c.", "setting": "Male Sprague-Dawley rats", "value": ">40", "unit": "mg/kg"}]}, {"molecule": "C1=CCN(C(Cc2ccccc2)c2ccccc2)CC1", "note": "(racemic) [Compound No. 6]", "values": [{"measurement": "Stereotyped Behavior ED₅₀ i.c.v.", "setting": "Male Sprague-Dawley rats", "value": "100(81-120) nmoles/rat"}]}, {"molecule": "COc1ccccc1C(Cc1ccccc1)N1CCCCC1", "note": "(racemic) [Compound No. 32]", "values": [{"measurement": "Ki", "setting": "PCP receptors", "value": "170 ± 10", "unit": "nM"}]}]}
